From the supplement of paper PMC10307832

Experiments:
Test in all cases: relative viability (nuclei count vs DMSO), 5 days (fraction); higher = more cells survive
[1] = compound: CCN(CCO)CCCC(C)Nc1ccnc2cc(Cl)ccc12 [Hydroxychloroquine] + C[C@@H](Oc1cc(-c2cnn(C3CCNCC3)c2)cnc1N)c1c(Cl)ccc(F)c1Cl [Crizotinib] (partner 1 µM)
How it was run: (§1)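 Values are medians from duplicate plates. Each reflects relative viability, defined as the nuclei count of treated wells over that of vehicle wells. Lung cancer cell lines in 1536-well plates were pin-tool dosed one day after seeding with one drug alone or with a fixed anchor-drug dose plus five library-drug doses (not always all listed) in √10 steps, then fixed, stained and imaged at 4× after 5 days.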

[2] = compound: CCN(CCO)CCCC(C)Nc1ccnc2cc(Cl)ccc12 [Hydroxychloroquine] + O=C(CCCCCCC(=O)Nc1ccccc1)NO [Vorinostat] (partner 1 µM)
How it was run: as §1

[3] = compound: CCN(CCO)CCCC(C)Nc1ccnc2cc(Cl)ccc12 [Hydroxychloroquine] + CC1(C)CCC(c2ccc(Cl)cc2)=C(CN2CCN(c3ccc(C(=O)NS(=O)(=O)c4ccc(N[C@H](CCN5CCOCC5)CSc5ccccc5)c(S(=O)(=O)C(F)(F)F)c4)cc3)CC2)C1 [Navitoclax] (partner 0.5 µM)
How it was run: as §1

[4] = compound: CCN(CCO)CCCC(C)Nc1ccnc2cc(Cl)ccc12 [Hydroxychloroquine] + Cc1nc(Nc2ncc(C(=O)Nc3c(C)cccc3Cl)s2)cc(N2CCN(CCO)CC2)n1 [Dasatinib] (partner 0.075 µM)
How it was run: as §1

Cell Line | relative viability ([1]; first compound 0.5 µM) | relative viability ([1]; first compound 1.581 µM) | relative viability ([1]; first compound 5 µM) | relative viability ([1]; first compound 15.81 µM) | relative viability ([1]; first compound 50 µM) | relative viability ([2]; first compound 0.5 µM) | relative viability ([2]; first compound 1.581 µM) | relative viability ([2]; first compound 5 µM) | relative viability ([2]; first compound 15.81 µM) | relative viability ([2]; first compound 50 µM) | relative viability ([3]; first compound 0.5 µM) | relative viability ([3]; first compound 1.581 µM) | relative viability ([3]; first compound 5 µM) | relative viability ([3]; first compound 15.81 µM) | relative viability ([3]; first compound 50 µM) | relative viability ([4]; first compound 0.5 µM) | relative viability ([4]; first compound 1.581 µM) | relative viability ([4]; first compound 5 µM) | relative viability ([4]; first compound 15.81 µM) | relative viability ([4]; first compound 50 µM)
H3255 | 0.848 | 0.979 | 0.716 | 0.841 | 0.985 | 0.741 | 0.715 | 0.716 | 0.858 | 0.762 | 0.56 | 0.422 | 0.546 | 0.522 | 0.635 | 0.367 | 0.386 | 0.3 | 0.281 | 0.369
EPLC-272H | 0.8 | 0.983 | 0.92 | 0.86 | 1.23 |  | 0.359 | 0.433 | 0.392 | 0.488 | 1.19 | 1.07 | 1.28 | 1.24 | 1.29 | 0.342 | 0.441 | 0.333 | 0.335 | 0.347
RERF-LC-KJ | 0.942 | 0.785 | 0.786 | 0.848 | 0.81 | 0.696 | 0.607 | 0.631 | 0.692 | 0.677 | 0.894 | 0.983 | 0.93 | 0.934 | 0.749 | 0.71 | 0.731 | 0.793 | 0.734 | 1.02
NCI-H1793 |  |  |  |  |  | 0.791 | 0.606 | 0.548 | 0.638 | 0.804 | 0.331 | 0.32 | 0.404 | 0.389 | 0.547 | 0.464 | 0.36 | 0.423 | 0.413 | 0.476
EKVX | 1.01 | 0.919 | 0.814 | 0.907 | 0.963 | 0.688 | 0.609 | 0.677 | 0.767 | 0.648 | 1.1 | 0.919 | 1.07 | 1.04 | 0.943 | 0.512 | 0.502 | 0.495 | 0.535 | 0.337
ChaGo-K-1 | 1.05 | 1.14 | 1.16 | 1.51 | 1.24 | 0.806 | 0.785 | 0.778 | 0.759 | 0.711 | 1.22 | 0.685 | 0.687 | 1.06 | 1 | 0.626 | 0.593 | 0.537 | 0.593 | 0.626
NCI-H23 | 0.473 | 0.537 | 0.579 | 0.446 | 0.603 | 0.674 | 0.566 | 0.56 | 0.626 | 0.67 | 0.841 | 0.822 | 0.842 | 0.732 | 0.953 | 0.87 | 0.683 | 0.879 | 0.807 | 0.795
EMC-BAC-2 | 0.826 | 0.743 | 0.741 | 0.755 | 0.807 | 0.492 | 0.443 | 0.375 | 0.425 | 0.328 | 1.17 | 1.23 | 1.17 | 1.17 | 1.36 | 0.309 | 0.381 | 0.347 | 0.329 | 0.345
LOU-NH91 | 0.726 | 0.727 | 0.742 | 0.739 | 0.741 | 0.89 | 0.72 | 0.88 | 0.933 | 0.868 | 0.679 | 0.543 | 0.742 | 0.676 | 0.826 | 0.559 | 0.453 | 0.588 | 0.581 | 0.593
LU99A | 0.566 | 0.533 | 0.593 | 0.606 | 0.66 | 0.559 | 0.474 | 0.465 | 0.435 | 0.507 | 0.858 | 0.707 | 0.93 | 0.679 | 0.749 | 0.47 | 0.502 | 0.714 | 0.613 | 0.612
NCI-H1395 |  |  |  |  |  | 0.756 | 0.716 | 0.606 | 0.743 | 0.674 | 1.21 | 1.05 | 1.17 | 1.18 | 1.01 | 0.424 | 0.402 | 0.401 | 0.391 | 0.405
NCI-H520 | 0.894 | 0.826 | 0.86 | 0.752 | 0.993 | 0.915 | 0.642 | 0.743 | 0.77 | 0.715 | 1.12 | 1.16 | 1.13 | 1.03 | 1.2 | 0.196 | 0.223 | 0.213 | 0.184 | 0.196
201T | 1.02 | 1 | 1.07 | 0.978 | 0.821 | 0.954 | 0.943 | 1.02 | 0.929 | 1.07 | 1.22 | 1.19 | 1.19 | 1.19 | 1.22 | 0.582 | 0.578 | 0.598 | 0.606 | 0.608
NCI-H1944 | 1.07 | 1.06 | 1.07 | 1.04 | 1.19 | 0.553 | 0.487 | 0.46 | 0.478 | 0.56 | 0.958 | 0.955 | 1.06 | 0.951 | 1.01 | 0.206 | 0.184 | 0.23 | 0.202 | 0.194
NCI-H2405 | 0.856 | 0.813 | 0.867 | 0.88 | 0.864 | 1.05 | 0.963 | 0.937 | 1.03 | 0.999 | 1.03 | 0.753 | 0.857 | 0.914 | 0.8 | 0.225 | 0.164 | 0.225 | 0.203 | 0.204
NCI-H1703 | 0.851 |  | 0.592 | 0.74 | 0.921 |  |  |  |  |  | 1.08 | 0.934 | 1.02 | 1.02 | 1.29 |  |  |  |  | 
NCI-H1755 | 0.983 | 0.768 | 0.86 | 0.866 | 0.879 | 0.79 | 0.656 | 0.778 | 0.734 | 0.737 | 1.03 | 0.905 | 0.933 | 0.972 | 0.926 | 0.498 | 0.381 | 0.422 | 0.392 | 0.394
